Measurements reported in US9662323B2, “Compounds having muscarinic receptor antagonist and beta2 adrenergic receptor agonist activity” (CHIESI FARMACEUTICI S.p.A., priority 2015, dated 2017).
pKi: −log10 of the molar value.

How the values were obtained:
Human M3 receptor = biological target: T1, Human M3 receptor (Homo sapiens, UniProt P20309); test: M3 Receptor Radioligand Binding Assay; details: human M3 receptor membranes, [3H]-N-methyl scopolamine; read-out: M3 binding affinity (Ki class)
T1 construct: purchased Perkin Elmer
T1 sequence (P20309 whole entry): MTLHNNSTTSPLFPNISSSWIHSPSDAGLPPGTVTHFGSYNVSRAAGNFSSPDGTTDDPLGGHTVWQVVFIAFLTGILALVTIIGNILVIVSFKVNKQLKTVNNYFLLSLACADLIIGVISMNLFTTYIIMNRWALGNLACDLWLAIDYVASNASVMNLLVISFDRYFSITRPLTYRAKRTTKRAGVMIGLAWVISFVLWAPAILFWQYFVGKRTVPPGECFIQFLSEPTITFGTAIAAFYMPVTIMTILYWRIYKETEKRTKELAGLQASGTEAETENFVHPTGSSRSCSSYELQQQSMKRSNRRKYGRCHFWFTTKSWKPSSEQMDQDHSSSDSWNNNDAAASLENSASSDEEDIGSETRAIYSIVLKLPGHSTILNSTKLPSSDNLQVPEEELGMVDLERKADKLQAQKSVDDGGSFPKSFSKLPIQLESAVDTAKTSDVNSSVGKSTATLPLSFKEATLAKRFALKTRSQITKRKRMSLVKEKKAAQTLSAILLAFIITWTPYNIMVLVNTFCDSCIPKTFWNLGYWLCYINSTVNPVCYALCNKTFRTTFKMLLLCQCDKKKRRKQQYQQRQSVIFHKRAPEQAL
Method: Biological Characterization M3 Receptor Radioligand Binding Assay
The assay was carried out in 96-well polypropylene plates in a volume of 250 ul. […] The final assay concentration of DMSO was 0.5% (v/v). The plates were sealed and incubated for 2 h at room temperature on an orbital shaker (slow speed). Membranes were harvested onto 96-well unifilter GF/C filter plates pre-treated with 0.5% polyethyleneimine (v/v), using a filter manifold, washed four times with 200 ul of assay buffer. The plates were dried before addition of 50 μl of microscint-0, sealed then read in a Trilux Microbeta scintillation counter.

Human β2 adrenoceptor = biological target: T2, Human β2 adrenoceptor (Homo sapiens, UniProt P07550); test: β2 Adrenoceptor Radioligand Binding Assay; details: human β2 adrenoceptor membranes, 125-I Cyanopindolol; read-out: B2 binding affinity (Ki class)
T2 construct: purchased Perkin Elmer
T2 sequence (P07550 whole entry): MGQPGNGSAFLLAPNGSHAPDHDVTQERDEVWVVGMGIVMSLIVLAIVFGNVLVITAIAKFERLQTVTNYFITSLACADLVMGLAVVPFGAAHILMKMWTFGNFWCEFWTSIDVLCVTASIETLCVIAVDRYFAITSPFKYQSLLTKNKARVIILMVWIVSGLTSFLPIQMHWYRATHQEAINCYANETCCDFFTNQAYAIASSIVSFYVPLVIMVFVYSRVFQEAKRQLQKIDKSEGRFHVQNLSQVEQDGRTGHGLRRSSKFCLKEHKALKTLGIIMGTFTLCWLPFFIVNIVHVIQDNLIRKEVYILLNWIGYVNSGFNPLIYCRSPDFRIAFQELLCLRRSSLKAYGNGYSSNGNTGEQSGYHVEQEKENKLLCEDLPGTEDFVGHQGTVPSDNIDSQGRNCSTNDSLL
Method: β2 Adrenoceptor Radioligand Binding Assay
The assay was carried out in 96-well polypropylene plates in a volume of 200 ul. The assay buffer used was 25 mM HEPES, 0.5% BSA (w/v), 1 mM EDTA, 0.02% ascorbic acid (v/v), (pH 7.4). The final assay concentration of DMSO was 0.5% (v/v). The plates were sealed and incubated for 1 h at room temperature on an orbital shaker (slow speed). Membranes were harvested onto 96-well unifilter GF/C filter plates pre-treated with 0.5% polyethyleneimine (v/v), using a filter manifold, washed six times with 200 ul of wash buffer containing 10 mM HEPES and 500 mM NaCl. The plates were dried before addition of 50 μl of microscint-0, sealed then read in a Trilux Microbeta scintillation counter. IC50 values are determined from competition curves using a non-linear curve fitting program. Ki values were calculated from IC50 values by the Cheng and Prusoff equation.

| Structure (SMILES) | pKi (Human M3 receptor) | pKi (Human β2 adrenoceptor) |
| --- | --- | --- |
| O=C(c1ccc(OCCCCNC[C@H](O)c2ccc(O)c3[nH]c(=O)ccc23)cc1)N1CC(C(=O)O[C@H]2CN3CCC2CC3)(c2ccccc2)C1 [Compound 18A, (R)-Quinuclidin-3-yl 1-(4-(4-(((R)-2-hydroxy-2-(8-hydroxy-2-oxo-1,2-dihydroquinolin-5-yl)ethyl)amino)butoxy)benzoyl)-3-phenylazetidine-3-carboxylate] | 8.00 to 9.00 | > 9.00 |
| O=C(NCCCCNC[C@H](O)c1ccc(O)c2[nH]c(=O)ccc12)c1ccc(C(=O)N2CCC(C(=O)O[C@H]3CN4CCC3CC4)(c3ccccc3)CC2)s1 [Compound 21, (R)-Quinuclidin-3-yl 1-(5-((4-(((R)-2-hydroxy-2-(8-hydroxy-2-oxo-1,2-dihydroquinolin-5-yl)ethyl)amino)butyl)carbamoyl)thiophene-2-carbonyl)-4-phenylpiperidine-4-carboxylate] | 8.00 to 9.00 | > 9.00 |
| O=C(c1ccc(OCc2ccc(CNC[C@H](O)c3ccc(O)c4[nH]c(=O)ccc34)cc2)cc1)N1CCC(C(=O)O[C@H]2CN3CCC2CC3)(c2ccccc2)CC1 [Compound 24, (R)-Quinuclidin-3-yl 1-(4-((4-((((R)-2-hydroxy-2-(8-hydroxy-2-oxo-1,2-dihydroquinolin-5-yl)ethyl)amino)methyl)benzyl)oxy)benzoyl)-4-phenylpiperidine-4-carboxylate] | > 9.00 | > 9.00 |
| O=C(NCc1ccc(CNC[C@H](O)c2ccc(O)c3[nH]c(=O)ccc23)cc1)c1ccc(C(=O)N2CC(C(=O)O[C@H]3CN4CCC3CC4)(c3ccccc3)C2)cc1 [Compound 9A, (R)-Quinuclidin-3-yl 1-(4-((4-((((R)-2-hydroxy-2-(8-hydroxy-2-oxo-1,2-dihydroquinolin-5-yl)ethyl)amino)methyl)benzyl)carbamoyl)benzoyl)-3-phenylazetidine-3-carboxylate] | > 9.00 | 8.00 to 9.00 |
| O=C(c1ccc(OCCCCCCNC[C@H](O)c2ccc(O)c3[nH]c(=O)ccc23)cc1)N1CCC(C(=O)O[C@H]2CN3CCC2CC3)(c2ccc(Cl)cc2)CC1 [Compound 51, (R)-Quinuclidin-3-yl 4-(4-chlorophenyl)-1-(4-((6-(((R)-2-hydroxy-2-(8-hydroxy-2-oxo-1,2-dihydroquinolin-5-yl)ethyl)amino)hexyl)oxy)benzoyl)piperidine-4-carboxylate] | 8.00 to 9.00 | > 9.00 |
| O=C(Cc1ccc(OCCCCNC[C@H](O)c2ccc(O)c3[nH]c(=O)ccc23)cc1)N1CCC(C(=O)O[C@H]2CN3CCC2CC3)(c2ccccc2)CC1 [Compound 30, (R)-Quinuclidin-3-yl 1-(2-(4-(4-(((R)-2-hydroxy-2-(8-hydroxy-2-oxo-1,2-dihydroquinolin-5-yl)ethyl)amino)butoxy)phenyl)acetyl)-4-phenylpiperidine-4-carboxylate] | 8.00 to 9.00 | > 9.00 |
| O=C(c1ccc(CN(Cc2ccc(CNC[C@H](O)c3ccc(O)c4[nH]c(=O)ccc34)cc2)C(=O)C2CC2)cc1)N1CCC(C(=O)O[C@H]2CN3CCC2CC3)(c2ccccc2)CC1 [Compound 60, (R)-Quinuclidin-3-yl 1-(4-((N-(4-((((R)-2-hydroxy-2-(8-hydroxy-2-oxo-1,2-dihydroquinolin-5-yl)ethyl)amino)methyl)benzyl)cyclopropanecarboxamido)-methyl)benzoyl)-4-phenylpiperidine-4-carboxylate] | > 9.00 | 8.00 to 9.00 |
| O=C(c1ccc(OCc2cccc(OCCCCNC[C@H](O)c3ccc(O)c4[nH]c(=O)ccc34)c2)cc1)N1CCC(C(=O)O[C@H]2CN3CCC2CC3)(c2ccccc2)CC1 [Compound 22, (R)-Quinuclidin-3-yl 1-(4-((3-(4-(((R)-2-hydroxy-2-(8-hydroxy-2-oxo-1,2-dihydroquinolin-5-yl)ethyl)amino)butoxy)benzyl)oxy)benzoyl)-4-phenylpiperidine-4-carboxylate] | 8.00 to 9.00 | > 9.00 |
| O=C(c1ccc(OCc2ccc(CNC[C@H](O)c3ccc(O)c4[nH]c(=O)ccc34)cc2)cc1)N1CC(C(=O)O[C@H]2CN3CCC2CC3)(c2ccccc2)C1 [Compound 8A, (R)-Quinuclidin-3-yl 1-(4-((4-((((R)-2-hydroxy-2-(8-hydroxy-2-oxo-1,2-dihydroquinolin-5-yl)ethyl)amino)methyl)benzyl)oxy)benzoyl)-3-phenylazetidine-3-carboxylate] | > 9.00 | > 9.00 |
| O=C(NCCC(=O)N1CCC(C(=O)O[C@H]2CN3CCC2CC3)(c2ccccc2)CC1)c1ccc(CNC[C@H](O)c2ccc(O)c3[nH]c(=O)ccc23)cc1 [Compound 31, (R)-Quinuclidin-3-yl 1-(3-(4-((((R)-2-hydroxy-2-(8-hydroxy-2-oxo-1,2-dihydroquinolin-5-yl)ethyl)amino)methyl)benzamido)propanoyl)-4-phenylpiperidine-4-carboxylate] | 8.00 to 9.00 | > 9.00 |
| O=C(Cc1ccc(OCc2ccc(CNC[C@H](O)c3ccc(O)c4[nH]c(=O)ccc34)cc2)cc1)N1CCC(C(=O)O[C@H]2CN3CCC2CC3)(c2ccccc2)CC1 [Compound 55, (R)-Quinuclidin-3-yl 1-(2-(4-((4-((((R)-2-hydroxy-2-(8-hydroxy-2-oxo-1,2-dihydroquinolin-5-yl)ethyl)amino)methyl)benzyl)oxy)phenyl)acetyl)-4-phenylpiperidine-4-carboxylate] | > 9.00 | > 9.00 |
| O=C(CCc1ccc(C(=O)N(CCCNC[C@H](O)c2ccc(O)c3[nH]c(=O)ccc23)Cc2ccccc2)cc1)N1CCC(C(=O)O[C@H]2CN3CCC2CC3)(c2ccccc2)CC1 [Compound 54, (R)-Quinuclidin-3-yl 1-(3-(4-(benzyl(3-(((R)-2-hydroxy-2-(8-hydroxy-2-oxo-1,2-dihydroquinolin-5-yl)ethyl)amino)propyl)carbamoyl)phenyl)propanoyl)-4-phenylpiperidine-4-carboxylate] | 8.00 to 9.00 | 8.00 to 9.00 |
| CN(CCCNC[C@H](O)c1ccc(O)c2[nH]c(=O)ccc12)C(=O)c1ccc(C(=O)N2CCC(C(=O)O[C@H]3CN4CCC3CC4)(c3ccccc3)CC2)s1 [Compound 27, (R)-Quinuclidin-3-yl 1-(5-((3-(((R)-2-hydroxy-2-(8-hydroxy-2-oxo-1,2-dihydroquinolin-5-yl)ethyl)amino)propyl)(methyl)carbamoyl)thiophene-2-carbonyl)-4-phenylpiperidine-4-carboxylate] | 8.00 to 9.00 | > 9.00 |
| O=C(c1ccc(COCc2ccc(CNC[C@H](O)c3ccc(O)c4[nH]c(=O)ccc34)cc2)cc1)N1CCC(C(=O)O[C@H]2CN3CCC2CC3)(c2ccccc2)CC1 [Compound 64, (R)-Quinuclidin-3-yl 1-(4-(((4-((((R)-2-hydroxy-2-(8-hydroxy-2-oxo-1,2-dihydroquinolin-5-yl)ethyl)amino)methyl)benzyl)oxy)methyl)benzoyl)-4-phenylpiperidine-4-carboxylate] | > 9.00 | 8.00 to 9.00 |
| O=C(Cc1ccc(CC(=O)N(CCCNC[C@H](O)c2ccc(O)c3[nH]c(=O)ccc23)Cc2cccc(OCc3ccccc3)c2)cc1)N1CCC(C(=O)O[C@H]2CN3CCC2CC3)(c2ccccc2)CC1 [Compound 41, (R)-Quinuclidin-3-yl 1-(2-(4-(2-((3-(benzyloxy)benzyl)(3-(((R)-2-hydroxy-2-(8-hydroxy-2-oxo-1,2-dihydroquinolin-5-yl)ethyl)amino)propyl)amino)-2-oxoethyl)phenyl)acetyl)-4-phenylpiperidine-4-carboxylate] | > 9.00 | 8.00 to 9.00 |
| COc1cc(CNC(=O)c2ccc(C(=O)N3CC(C(=O)O[C@H]4CN5CCC4CC5)(c4ccccc4)C3)cc2)ccc1CNC[C@H](O)c1ccc(O)c2[nH]c(=O)ccc12 [Compound 20A, (R)-Quinuclidin-3-yl 1-(4-((4-((((R)-2-hydroxy-2-(8-hydroxy-2-oxo-1,2-dihydroquinolin-5-yl)ethyl)amino)methyl)-3-methoxybenzyl)carbamoyl)benzoyl)-3-phenylazetidine-3-carboxylate] | > 9.00 | > 9.00 |
| Cc1cc(C(=O)N2CCC(C(=O)O[C@H]3CN4CCC3CC4)(c3ccccc3)CC2)ccc1OCCCCCNC[C@H](O)c1ccc(O)c2[nH]c(=O)ccc12 [Compound 10, (R)-Quinuclidin-3-yl 1-(4-((5-(((R)-2-hydroxy-2-(8-hydroxy-2-oxo-1,2-dihydroquinolin-5-yl)ethyl)amino)pentyl)oxy)-3-methylbenzoyl)-4-phenylpiperidine-4-carboxylate] | 8.00 to 9.00 | > 9.00 |
| O=C(c1ccc(CCNC[C@H](O)c2ccc(O)c3[nH]c(=O)ccc23)cc1)N1CCC(C(=O)O[C@H]2CN3CCC2CC3)(c2ccccc2)CC1 [Compound 20, (R)-Quinuclidin-3-yl 1-(4-(2-(((R)-2-hydroxy-2-(8-hydroxy-2-oxo-1,2-dihydroquinolin-5-yl)ethyl)amino)ethyl)benzoyl)-4-phenylpiperidine-4-carboxylate] | < 8.00 | > 9.00 |
